PubChem BioAssay (NCI)
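Test compounds were applied to cells in 96-well plates for 48 hours at 5 doses. The concentration for 50% growth inhibition is given as GI50. TGI: concentration producing complete growth inhibition.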

Columns and labels:
Test in all cases: DTP human tumour cell line panel, 48 h
NCI-H226 lung = tested on: NCI-H226 lung
LOX IMVI melanoma = tested on: LOX IMVI melanoma
SF-295 CNS = tested on: SF-295 CNS
DU-145 prostate = tested on: DU-145 prostate
SK-OV-3 ovarian = tested on: SK-OV-3 ovarian
HS 578T breast = tested on: HS 578T breast
UO-31 renal = tested on: UO-31 renal
HT29 colon = tested on: HT29 colon
786-0 renal = tested on: 786-0 renal
A498 renal = tested on: A498 renal
OVCAR-4 ovarian = tested on: OVCAR-4 ovarian
SR leukemia = tested on: SR leukemia
SF-539 CNS = tested on: SF-539 CNS
MALME-3M melanoma = tested on: MALME-3M melanoma
BT-549 breast = tested on: BT-549 breast
M14 melanoma = tested on: M14 melanoma
SNB-19 CNS = tested on: SNB-19 CNS
NCI-H460 lung = tested on: NCI-H460 lung
EKVX NSCLC = tested on: EKVX NSCLC
MDA-MB-435 = tested on: MDA-MB-435
SNB-75 CNS = tested on: SNB-75 CNS
MDA-MB-231 breast = tested on: MDA-MB-231 breast
PC-3 prostate = tested on: PC-3 prostate
OVCAR-3 ovarian = tested on: OVCAR-3 ovarian
ACHN renal = tested on: ACHN renal
SK-MEL-28 melanoma = tested on: SK-MEL-28 melanoma
COLO 205 colon = tested on: COLO 205 colon
UACC-257 melanoma = tested on: UACC-257 melanoma
SK-MEL-5 melanoma = tested on: SK-MEL-5 melanoma
NCI/ADR-RES ovarian = tested on: NCI/ADR-RES ovarian
HL-60(TB) leukemia = tested on: HL-60(TB) leukemia
RXF 393 renal = tested on: RXF 393 renal
NCI-H23 lung = tested on: NCI-H23 lung
HOP-92 NSCLC = tested on: HOP-92 NSCLC
OVCAR-5 ovarian = tested on: OVCAR-5 ovarian
U251 CNS = tested on: U251 CNS
T-47D breast = tested on: T-47D breast
SF-268 CNS = tested on: SF-268 CNS
KM12 colon = tested on: KM12 colon
A549 NSCLC = tested on: A549 NSCLC
UACC-62 melanoma = tested on: UACC-62 melanoma
IGROV1 ovarian = tested on: IGROV1 ovarian
SW-620 colon = tested on: SW-620 colon
SK-MEL-2 melanoma = tested on: SK-MEL-2 melanoma
SN12C renal = tested on: SN12C renal
OVCAR-8 ovarian = tested on: OVCAR-8 ovarian
RPMI-8226 leukemia = tested on: RPMI-8226 leukemia
NCI-H522 lung = tested on: NCI-H522 lung
TK-10 renal = tested on: TK-10 renal
HCT-116 colon = tested on: HCT-116 colon
HCT-15 colon = tested on: HCT-15 colon
HOP-62 NSCLC = tested on: HOP-62 NSCLC
CCRF-CEM leukemia = tested on: CCRF-CEM leukemia
HCC-2998 colon = tested on: HCC-2998 colon
MCF7 breast = tested on: MCF7 breast
MOLT-4 leukemia = tested on: MOLT-4 leukemia

`CC(=O)/C=C/c1ccc(OCc2ccc(Cl)cc2)cc1` was tested, and the GI50 (NCI-H226 lung) was > 1000 µM, the TGI (NCI-H226 lung) was > 1000 µM and the GI50 (LOX IMVI melanoma) was 343 µM. The TGI (LOX IMVI melanoma) was > 1000 µM, the GI50 (SF-295 CNS) was 679 µM and the TGI (SF-295 CNS) was > 1000 µM. For the same molecule, the GI50 (DU-145 prostate) was 636 µM, the TGI (DU-145 prostate) was > 1000 µM and the GI50 (SK-OV-3 ovarian) was > 1000 µM. For the same molecule, the TGI (SK-OV-3 ovarian) was > 1000 µM, the GI50 (HS 578T breast) was > 1000 µM and the TGI (HS 578T breast) was > 1000 µM. The GI50 (UO-31 renal) was 556 µM, the TGI (UO-31 renal) was > 1000 µM and the GI50 (HT29 colon) was > 1000 µM. The TGI (HT29 colon) was > 1000 µM, the GI50 (786-0 renal) was 718 µM and the TGI (786-0 renal) was > 1000 µM. For the same molecule, the GI50 (A498 renal) was 254 µM, the TGI (A498 renal) was > 1000 µM and the GI50 (OVCAR-4 ovarian) was 648 µM. For the same molecule, the TGI (OVCAR-4 ovarian) was > 1000 µM, the GI50 (SR leukemia) was 564 µM and the TGI (SR leukemia) was > 1000 µM. For the same molecule, the GI50 (SF-539 CNS) was > 1000 µM, the TGI (SF-539 CNS) was > 1000 µM and the GI50 (MALME-3M melanoma) was 330 µM. For the same molecule, the TGI (MALME-3M melanoma) was > 1000 µM, the GI50 (BT-549 breast) was 136 µM and the TGI (BT-549 breast) was > 1000 µM. For the same molecule, the GI50 (M14 melanoma) was 559 µM, the TGI (M14 melanoma) was > 1000 µM and the GI50 (SNB-19 CNS) was > 1000 µM. The TGI (SNB-19 CNS) was > 1000 µM, the GI50 (NCI-H460 lung) was 529 µM and the TGI (NCI-H460 lung) was > 1000 µM. For the same molecule, the GI50 (EKVX NSCLC) was 298 µM, the TGI (EKVX NSCLC) was > 1000 µM and the GI50 (MDA-MB-435) was 228 µM. For the same molecule, the TGI (MDA-MB-435) was > 1000 µM, the GI50 (SNB-75 CNS) was 457 µM and the TGI (SNB-75 CNS) was > 1000 µM. The GI50 (MDA-MB-231 breast) was 629 µM, the TGI (MDA-MB-231 breast) was > 1000 µM and the GI50 (PC-3 prostate) was 725 µM. The TGI (PC-3 prostate) was > 1000 µM, the GI50 (OVCAR-3 ovarian) was > 1000 µM and the TGI (OVCAR-3 ovarian) was > 1000 µM. The GI50 (ACHN renal) was > 1000 µM, the TGI (ACHN renal) was > 1000 µM and the GI50 (SK-MEL-28 melanoma) was 400 µM. For the same molecule, the TGI (SK-MEL-28 melanoma) was > 1000 µM, the GI50 (COLO 205 colon) was 287 µM and the TGI (COLO 205 colon) was > 1000 µM. The GI50 (UACC-257 melanoma) was 274 µM, the TGI (UACC-257 melanoma) was > 1000 µM and the GI50 (SK-MEL-5 melanoma) was 140 µM. For the same molecule, the TGI (SK-MEL-5 melanoma) was 395 µM, the GI50 (NCI/ADR-RES ovarian) was 395 µM and the TGI (NCI/ADR-RES ovarian) was > 1000 µM. The GI50 (HL-60(TB) leukemia) was 405 µM, the TGI (HL-60(TB) leukemia) was > 1000 µM and the GI50 (RXF 393 renal) was 568 µM. The TGI (RXF 393 renal) was > 1000 µM, the GI50 (NCI-H23 lung) was 720 µM and the TGI (NCI-H23 lung) was > 1000 µM. For the same molecule, the GI50 (HOP-92 NSCLC) was 372 µM, the TGI (HOP-92 NSCLC) was > 1000 µM and the GI50 (OVCAR-5 ovarian) was > 1000 µM. The TGI (OVCAR-5 ovarian) was > 1000 µM, the GI50 (U251 CNS) was > 1000 µM and the TGI (U251 CNS) was > 1000 µM. For the same molecule, the GI50 (T-47D breast) was 182 µM, the TGI (T-47D breast) was > 1000 µM and the GI50 (SF-268 CNS) was 670 µM. For the same molecule, the TGI (SF-268 CNS) was > 1000 µM, the GI50 (KM12 colon) was 513 µM and the TGI (KM12 colon) was > 1000 µM. The GI50 (A549 NSCLC) was > 1000 µM, the TGI (A549 NSCLC) was > 1000 µM and the GI50 (UACC-62 melanoma) was 218 µM. The TGI (UACC-62 melanoma) was > 1000 µM, the GI50 (IGROV1 ovarian) was > 1000 µM and the TGI (IGROV1 ovarian) was > 1000 µM. For the same molecule, the GI50 (SW-620 colon) was > 1000 µM, the TGI (SW-620 colon) was > 1000 µM and the GI50 (SK-MEL-2 melanoma) was 473 µM. The TGI (SK-MEL-2 melanoma) was > 1000 µM, the GI50 (SN12C renal) was 893 µM and the TGI (SN12C renal) was > 1000 µM. For the same molecule, the GI50 (OVCAR-8 ovarian) was 613 µM, the TGI (OVCAR-8 ovarian) was > 1000 µM and the GI50 (RPMI-8226 leukemia) was 237 µM. The TGI (RPMI-8226 leukemia) was > 1000 µM, the GI50 (NCI-H522 lung) was 295 µM and the TGI (NCI-H522 lung) was > 1000 µM. The GI50 (TK-10 renal) was 827 µM, the TGI (TK-10 renal) was > 1000 µM and the GI50 (HCT-116 colon) was > 1000 µM. For the same molecule, the TGI (HCT-116 colon) was > 1000 µM, the GI50 (HCT-15 colon) was 498 µM and the TGI (HCT-15 colon) was > 1000 µM. The GI50 (HOP-62 NSCLC) was > 1000 µM, the TGI (HOP-62 NSCLC) was > 1000 µM and the GI50 (CCRF-CEM leukemia) was 577 µM. For the same molecule, the TGI (CCRF-CEM leukemia) was > 1000 µM, the GI50 (HCC-2998 colon) was 473 µM and the TGI (HCC-2998 colon) was > 1000 µM. The GI50 (MCF7 breast) was 644 µM, the TGI (MCF7 breast) was > 1000 µM and the GI50 (MOLT-4 leukemia) was 240 µM. The TGI (MOLT-4 leukemia) was > 1000 µM.
